Reference: patent US6005103A, “Pyrone derivatives as protease inhibitors and antiviral agents” (Warner-Lambert Company, priority 1994, dated 1999)
Values after ≈ are worked out from the molar mass of the structure shown.

Key:
[1] = tested on: Enterococcus foecalis MGH2; assay: Antibacterial activity, microtitration dilution method; format: cell-based; details: read-out: minimum inhibitory concentration (MIC)
From the text: (§1) The compounds of the invention display antibacterial activity when tested by the microtitration dilution method as described in Heifetz, et al., Antimicr. Agents. & Chemoth. 6: 124 (1974) which is incorporated herein by reference.
(§2) By use of the above referenced method, the following minimum inhibitory concentration values (MICs in μg/mL) were obtained for representative compounds of the invention vs. clinically relevant gram positive pathogens which have become highly resistant to conventional therapy in recent years.

[2] = tested on: Staphylococcus aureus H228; assay: as above; format: cell-based; details: read-out: minimum inhibitory concentration (MIC)
From the text: as §1, §2

[3] = tested on: Staphylococcus aureus UC-76; assay: as above; format: cell-based; details: UC76, read-out: minimum inhibitory concentration (MIC)
From the text: as §1, §2

[4] = tested on: Streptococcus pneumonia 5V-1; assay: as above; format: cell-based; details: Streptococcus pneumoniae, 5V1, read-out: minimum inhibitory concentration (MIC)
From the text: as §1, §2

[5] = tested on: Streptococcus pyogenes C203; assay: as above; format: cell-based; details: read-out: minimum inhibitory concentration (MIC)
From the text: as §1, §2

[6] = tested on: HIV; details: cell-free and cell-mediated HIV infection; cited from earlier work

MIC [1] [µg/mL] | MIC [2] [µg/mL] | MIC [3] [µg/mL] | MIC [4] [µg/mL] | MIC [5] [µg/mL] | SMILES | HIV infection inhibition (in words) [6]
25 (≈ 67.1 µM) | 12.5 (≈ 33.6 µM) | 12.5 (≈ 33.6 µM) | 25 (≈ 67.1 µM) | 25 (≈ 67.1 µM) | CC(C)CC(SC1CCCCC1)c1c(O)cc(-c2ccccc2)oc1=O (racemic) [Example 142, 3-[l-(Cyclohexylthio)-3-methylbutyl]-4-hydroxy-6-phenyl-2H-pyran-2-one (±)] | –
– | – | – | – | – | CC(=O)CC(c1ccccc1)c1c(O)c2ccccc2oc1=O (stereo not drawn) [Warfarin, 3-(α-acetonylbenzyl)-4-hydroxycoumarin] | inhibiting cell-free and cell-mediated HIV infection
